Results published in patent publication US9149038B2, “4-amino-6-(heterocyclic)picolinates and 6-amino-2-(heterocyclic)pyrimidine-4-carboxylates and their use as herbicides” (Dow AgroSciences LLC, priority 2013, dated 2015).
Read-outs that look alike come from different tables or passages of the source.

System: Direct Seeded Rice and weed species
Experiment: Postemergence herbicidal activity in direct seeded rice, visual rating after 20-22 days and probit GR20/GR50/GR80/GR90 (Table 14)
Type: in vivo
Details: for pest or weed control at 17.5 g/ha / pest or weed control at 35 g/ha / pest or weed control at 70 g/ha: post-emergence, 504 h, postemergence; for pest or weed control at 17.5 g/ha: 17.5 g ai/ha; for pest or weed control at 35 g/ha: 35 g ai/ha; for pest or weed control at 70 g/ha: 70 g ai/ha
Procedure, shortened: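 Rice and weeds grown in loam–sand soil (pH about 8.1) in greenhouse to 2nd–3rd true leaf, then sprayed postemergence at 187 L/ha in acetone/DMSO with 1.25% (v/v) Agri-dex crop oil. Injury rated visually 0–100 after 20-22 days versus untreated plants; GR20, GR50, GR80, GR90 obtained by probit analysis across dose rates.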

[1] = BRAPP (broadleaf signalgrass, Brachiaria platyphylla), read-out: Visual Growth Reduction (%) 21 Days After Application BRAPP
[2] = CYPDI (small-flower flatsedge, Cyperus difformis), read-out: Visual Growth Reduction (%) 21 Days After Application CYPDI
[3] = CYPES (yellow nutsedge, Cyperus esculentus), read-out: Visual Growth Reduction (%) 21 Days After Application CYPES
[4] = CYPIR (rice flatsedge, Cyperus iria), read-out: Visual Growth Reduction (%) 21 Days After Application CYPIR
[5] = DIGSA (large crabgrass, Digitaria sanguinalis), read-out: Visual Growth Reduction (%) 21 Days After Application DIGSA
[6] = ECHCG (barnyardgrass, Echinochloa crus-galli), read-out: Visual Growth Reduction (%) 21 Days After Application ECHCG
[7] = ECHCO (junglerice, Echinochloa colonum), read-out: Visual Growth Reduction (%) 21 Days After Application ECHCO
[8] = LEFCH (Chinese sprangletop, Leptochloa chinensis), read-out: Visual Growth Reduction (%) 21 Days After Application LEFCH
[9] = ORYSJ (Oryza sativa, rice crop), read-out: Visual Growth Reduction (%) 21 Days After Application ORYSJ
[10] = ORYSK (Oryza sativa, rice crop), read-out: Visual Growth Reduction (%) 21 Days After Application ORYSK
[11] = SCPJU (Japanese bulrush, Schoenoplectus juncoides Roxb.), read-out: Visual Growth Reduction (%) 21 Days After Application SCPJU
[12] = SEBEX (hemp sesbania, Sesbania exaltata), read-out: Visual Growth Reduction (%) 21 Days After Application SEBEX

## Nc1cc(-c2ccc3c(c2F)OC(F)(F)O3)nc(C(=O)O)c1Cl [Compound 41]
BRAPP (Brachiaria platyphylla), probit analysis, dose for 50 percent growth reduction
  GR50 BRAPP: 0.3 g ai/ha
BRAPP (Brachiaria platyphylla), probit analysis, dose for 80 percent growth reduction
  GR80 BRAPP: 2 g ai/ha
BRAPP (Brachiaria platyphylla), probit analysis, dose for 90 percent growth reduction
  GR90 BRAPP: 6 g ai/ha
CYPDI (Cyperus difformis), probit analysis, dose for 50 percent growth reduction
  GR50 CYPDI: 4 g ai/ha
CYPDI (Cyperus difformis), probit analysis, dose for 80 percent growth reduction
  GR80 CYPDI: 6 g ai/ha
CYPDI (Cyperus difformis), probit analysis, dose for 90 percent growth reduction
  GR90 CYPDI: 7 g ai/ha
CYPES (Cyperus esculentus), probit analysis, dose for 50 percent growth reduction
  GR50 CYPES: 0.0001 g ai/ha
CYPES (Cyperus esculentus), probit analysis, dose for 80 percent growth reduction
  GR80 CYPES: 0.0001 g ai/ha
CYPES (Cyperus esculentus), probit analysis, dose for 90 percent growth reduction
  GR90 CYPES: 0.0001 g ai/ha
CYPIR (Cyperus iria), probit analysis, dose for 50 percent growth reduction
  GR50 CYPIR: 0.0001 g ai/ha
CYPIR (Cyperus iria), probit analysis, dose for 80 percent growth reduction
  GR80 CYPIR: 0.0001 g ai/ha
CYPIR (Cyperus iria), probit analysis, dose for 90 percent growth reduction
  GR90 CYPIR: 0.0001 g ai/ha
DIGSA (Digitaria sanguinalis), probit analysis, dose for 50 percent growth reduction
  GR50 DIGSA: 0.001 g ai/ha
DIGSA (Digitaria sanguinalis), probit analysis, dose for 80 percent growth reduction
  GR80 DIGSA: 0.131 g ai/ha
DIGSA (Digitaria sanguinalis), probit analysis, dose for 90 percent growth reduction
  GR90 DIGSA: 2 g ai/ha
ECHCG (Echinochloa crus-galli), probit analysis, dose for 50 percent growth reduction
  GR50 ECHCG: 0.0018 g ai/ha
ECHCG (Echinochloa crus-galli), probit analysis, dose for 80 percent growth reduction
  GR80 ECHCG: 0.0018 g ai/ha
ECHCG (Echinochloa crus-galli), probit analysis, dose for 90 percent growth reduction
  GR90 ECHCG: 0.0018 g ai/ha
ECHCO (Echinochloa colonum), probit analysis, dose for 50 percent growth reduction
  GR50 ECHCO: 0.0003 g ai/ha
ECHCO (Echinochloa colonum), probit analysis, dose for 80 percent growth reduction
  GR80 ECHCO: 0.0415 g ai/ha
ECHCO (Echinochloa colonum), probit analysis, dose for 90 percent growth reduction
  GR90 ECHCO: 1 g ai/ha
LEFCH (Leptochloa chinensis), probit analysis, dose for 50 percent growth reduction
  GR50 LEFCH: 6 g ai/ha
LEFCH (Leptochloa chinensis), probit analysis, dose for 80 percent growth reduction
  GR80 LEFCH: 13 g ai/ha
LEFCH (Leptochloa chinensis), probit analysis, dose for 90 percent growth reduction
  GR90 LEFCH: 20 g ai/ha
ORYSJ (Oryza sativa, rice crop), probit analysis, dose for 20 percent growth reduction
  GR20 ORYSJ: 1 g ai/ha
ORYSK (Oryza sativa, rice crop), probit analysis, dose for 20 percent growth reduction
  GR20 ORYSK: 2 g ai/ha
SCPJU (Schoenoplectus juncoides Roxb.), probit analysis, dose for 50 percent growth reduction
  GR50 SCPJU: 0.0001 g ai/ha
SCPJU (Schoenoplectus juncoides Roxb.), probit analysis, dose for 80 percent growth reduction
  GR80 SCPJU: 0.0001 g ai/ha
SCPJU (Schoenoplectus juncoides Roxb.), probit analysis, dose for 90 percent growth reduction
  GR90 SCPJU: 0.0001 g ai/ha
SEBEX (Sesbania exaltata), probit analysis, dose for 50 percent growth reduction
  GR50 SEBEX: 4 g ai/ha
SEBEX (Sesbania exaltata), probit analysis, dose for 80 percent growth reduction
  GR80 SEBEX: 9 g ai/ha
SEBEX (Sesbania exaltata), probit analysis, dose for 90 percent growth reduction
  GR90 SEBEX: 13 g ai/ha
[1]
  pest or weed control at 17.5 g/ha: 95 to 100%
  pest or weed control at 35 g/ha: 95 to 100%
  pest or weed control at 70 g/ha: 95 to 100%
[2]
  pest or weed control at 17.5 g/ha: 95 to 100%
  pest or weed control at 35 g/ha: 95 to 100%
  pest or weed control at 70 g/ha: 95 to 100%
[3]
  pest or weed control at 17.5 g/ha: 95 to 100%
  pest or weed control at 35 g/ha: 95 to 100%
  pest or weed control at 70 g/ha: 95 to 100%
[4]
  pest or weed control at 17.5 g/ha: 95 to 100%
  pest or weed control at 35 g/ha: 95 to 100%
  pest or weed control at 70 g/ha: 95 to 100%
[5]
  pest or weed control at 17.5 g/ha: 95 to 100%
  pest or weed control at 35 g/ha: 95 to 100%
  pest or weed control at 70 g/ha: 95 to 100%
[6]
  pest or weed control at 17.5 g/ha: 85 to 94%
  pest or weed control at 35 g/ha: 95 to 100%
  pest or weed control at 70 g/ha: 95 to 100%
[7]
  pest or weed control at 17.5 g/ha: 95 to 100%
  pest or weed control at 35 g/ha: 95 to 100%
  pest or weed control at 70 g/ha: 95 to 100%
[8]
  pest or weed control at 17.5 g/ha: 85 to 94%
  pest or weed control at 35 g/ha: 95 to 100%
  pest or weed control at 70 g/ha: 95 to 100%
[9]
  pest or weed control at 17.5 g/ha: 85 to 94%
  pest or weed control at 35 g/ha: 95 to 100%
  pest or weed control at 70 g/ha: 95 to 100%
[10]
  pest or weed control at 17.5 g/ha: 60 to 74%
  pest or weed control at 35 g/ha: 75 to 84%
  pest or weed control at 70 g/ha: 85 to 94%
[11]
  pest or weed control at 17.5 g/ha: 95 to 100%
  pest or weed control at 35 g/ha: 95 to 100%
  pest or weed control at 70 g/ha: 95 to 100%
[12]
  pest or weed control at 17.5 g/ha: 95 to 100%
  pest or weed control at 35 g/ha: 95 to 100%
  pest or weed control at 70 g/ha: 95 to 100%
